Values quoted from earlier work in patent US20100227030A1, “METHOD FOR THE CONSERVATION OF A PLANT MATERIAL” (priority 2007, published 2010).

Conditions: at 20° C

Structure (SMILES): OC[C@H]1O[C@H](O[C@H]2O[C@H](CO)[C@@H](O)[C@H](O)[C@H]2O)[C@H](O)[C@@H](O)[C@@H]1O [trehalose]
- Maximal solubility: 68.9 g/100 g water
